Like-named read-outs stand apart in the source and are kept apart here. Marks after values point to notes of the source that are not given here.
What was measured:
J20 APP transgenic mice = format: in vivo; settings: for occurrence of EAE: immunization in CFA + pertussis toxin
Procedure: Induction and clinical evaluation of EAE in APP+ mice. (B6D2)F1 or (B6XSJL)F1 APP+ (WT or B-cell deficient μMT) and non-tg littermates were immunized in the hind footpads with 100 μg MOG(35-55), PLP 139-151 or 100 μg β-amyloid peptide (1-40) in CFA. Immediately thereafter and again 48 hours later mice received an i.p. injection containing 150 ng of pertussis toxin in 0.2 ml PBS. Animals were monitored for symptoms of EAE beginning 7 days after immunization and scored as follows: 0, no disease; 1, tail paralysis; 2, hind limb weakness; 3, hind limb paralysis; 4, hind limb plus forelimb paralysis; and 5, moribund.
Nasal vaccination. Glatiramer acetate: 25 μg was given on days 1, 2, 4 and 5 the first week followed by a weekly boost for six weeks. IVX-908: 1 μg/mouse was given on days 1 and 5 the first week followed by a weekly boost for six weeks. BSA+IVX-908: 25 μg of BSA plus 1 ug IVX-908 were given on days 1 and 5 the first week, and 25 μg of BSA alone was given on days 2 and 4, followed by six weekly boosts of the combination of BSA+IVX-908. GA+IVX-908: 25 μg of GA plus 1 μg IVX-908 were given on days 1 and 5 the first week, and 25 μg of GA alone was given on days 2 and 4, followed by six weekly boosts of the combination of GA+IVX-908.

Aβ = assay: Anti-Aβ antibody level (IgG, OD) in immunized J20 APP transgenic mice; format: in vivo
Procedure: Antibody levels were measured against Aβ in animals immunized with MOG or PLP to determine if there was cross reactivity with Aβ and Aβ antibody titers as compared to those from animals immunized with Aβ. […] To definitively establish that antibodies were not playing a role, 16-month-old J20 mice bred to μMT B-cell deficient mice were immunized with MOG 35-55 in CFA followed by administration of Pertussis toxin.

Aβ40 and Aβ42 [1] = assay: Total brain Aβ by sandwich ELISA, J20 APP transgenic mice; format: in vivo; settings: for Total brain Aβ: subcutaneous immunization in CFA + pertussis toxin
Procedure: FIG. 1: Effect of subcutaneous immunization on total Aβ levels in the brain. To quantify amyloid burden, the right hemisphere was extracted in 5.0 M guanidinium-chloride (pH 8) for 3 hours at room temperature. Dilutions were used to measure levels of Aβ40 and Aβ42 by sandwich enzyme-linked immunosorbent assays (ELISA).
Amyloid quantification. To quantify amyloid burden, the right hemisphere was extracted in 5.0 M guanidinium-chloride (pH 8) for 3 hours at room temperature. Dilutions were used to measure levels of insoluble (amyloid-associated) […] and Aβ42 by sandwich enzyme-linked immunosorbent assays (ELISA). […] Brains were frozen in the presence of OCT paraformaldehyde, cut to 14-μm longitudinal sections used for immunohistological staining and amyloid fibril quantification. […] Images (magnification ×20) from these sections were collected from a 3CCD color video camera and analyzed with appropriate software (NIH; Imaging Research). The amount of amyloid fibril was expressed as a percentage per mm^2 hippocampal region as measured by the software.

Aβ fibrils = format: in vivo, mice; settings: for % Area of thioflavin positive Aβ plaques (hippocampus): subcutaneous immunization in CFA + pertussis toxin
Procedure: Amyloid quantification. To quantify amyloid burden, the right hemisphere was extracted in 5.0 M guanidinium-chloride (pH 8) for 3 hours at room temperature. Dilutions were used to measure levels of insoluble (amyloid-associated) […] and Aβ42 by sandwich enzyme-linked immunosorbent assays (ELISA). To measure Aβ fibrils, the left hemisphere was fixed in 4% […] O/N followed by 4.5% sucrose for 4 hours then 20% Sucrose for O/N at 4° C. Brains were frozen in the presence of OCT paraformaldehyde, cut to 14-μm longitudinal sections used for immunohistological staining and amyloid fibril quantification. Well-defined hippocampal regions (Bregma −1.34), were selected for quantification of the amount of amyloid fibril in plaques using thioflavin-S staining. Images (magnification ×20) from these sections were collected from a 3CCD color video camera and analyzed with appropriate software (NIH; Imaging Research). The amount of amyloid fibril was expressed as a percentage per mm^2 hippocampal region as measured by the software.

[2] = tested on: hippocampus of APP tg mice; assay: Immunohistochemistry of hippocampus in immunized animals; format: in vivo; settings: for activated microglia (CD11b) in hippocampus: immunization in CFA, APP tg mice
Procedure: Immunohistology. The staining was performed utilizing the following markers: T-cells (CD3; BD Biosciences:553057), microglia/macrophages (CD11b; Serotec:MCA74G), (C-MFR; Cymbus Biotech:21080096), IFN-γ (Pharmingen: 559065), IL-10 (Pharmingen:559063) and TGF-β (RD:AB-20-PB). Anti-amyloid antibodies (R1282) were a gift of Dennis Seloke. Brain sections were further subject to Haematoxylin staining. Sections were evaluated in a blinded manner, and controls included use of isotype-matched mAbs as previously described. For each treatment the quantification was done from the hippocampal region of three different brain sections (the same region, Bregma −1.34, that were used for ThS staining). The results are expressed as the mean of the labeled cells for each marker.

APP non-transgenic mice = assay: Microglial activation in APP non-transgenic mice; format: in vivo; settings: parenteral with CFA/PT or nasal
Aβ40 and Aβ42 [3] = assay: Total brain Aβ by sandwich ELISA, J20 APP transgenic mice; format: in vivo
microglial phagocytosis = settings: Cha, A. et al. (2001) GLIA 33(1):87-95; cited from earlier work
[4] = subcutaneous (footpad) immunization in CFA + pertussis toxin, J20 APP transgenic mice, scale 0-5
[5] = level of OD at titer of 1:500 IgG, subcutaneous immunization in CFA + pertussis toxin, J20 APP transgenic mice
[6] = immunization in CFA + pertussis toxin, APP transgenic mice
[7] = μMT B-cell deficient J20 APP+ mice
[8] = μMT B-cell deficient APP+ mice, CFA + Pertussis toxin
[9] = Subcutaneous (CFA/P.T.), B-deficient mice
[10] = nasal immunization, J20 APP transgenic mice

Row | Substance | EAE score (J20 APP transgenic mice; [4]) | Anti-Aβ Antibody (Aβ; [5]) [OD] | reduction of total brain Aβ (ELISA) / total amyloid load vs. control (Aβ40 and Aβ42 [1]; [6]) [%] | Total brain Aβ (Aβ40 and Aβ42 [1]; J20 APP transgenic mice) | reduction of staining for Aβ fibril in the hippocampus (thioflavin S) vs. controls (Aβ fibrils; [6]) [%] | % Area of thioflavin positive Aβ plaques (hippocampus) (Aβ fibrils; J20 APP transgenic mice) | CD3, number of cells per hippocampal region ([2]; Subcutaneous (CFA/P.T.)) | CD11b, number of cells per hippocampal region ([2]; Subcutaneous (CFA/P.T.)) | IFN-γ, number of cells per hippocampal region ([2]; Subcutaneous (CFA/P.T.)) | IL-10, number of cells per hippocampal region ([2]; Subcutaneous (CFA/P.T.)) | M-CSFR, number of cells per hippocampal region ([2]; Subcutaneous (CFA/P.T.)) | TGF-β, number of cells per hippocampal region ([2]; Subcutaneous (CFA/P.T.)) | activated microglia (CD11b) in hippocampus [2] [cells/hippocampus region] | occurrence of EAE (J20 APP transgenic mice) | other results
1 | myelin oligodendrocyte glycoprotein (MOG) peptide (amino acids 35-55) (MEVGWYRSPFSRVVHLYRNGK; UniProt Q61885 63-83, looked up, fragment) | 2.5 ± 0.8 | 0 | 94 | 8.4 ± 2.1 ^b ng/ml | 92 | 0.22 ± 0.1 ^b % | 142 ± 19 ^iv cells per hippocampal region | 349 ± 34.3 ^iv cells per hippocampal region | 109 ± 7 ^iv cells per hippocampal region | 21 ± 9 ^ii cells per hippocampal region | 79 ± 5 ^i cells per hippocampal region | 20 ± 5 ^iii cells per hippocampal region | 349±34.3 | – | EAE score (J20 APP transgenic mice; subcutaneous immunization in CFA + pertussis toxin, μMT B-cell deficient J20 APP+ mice): 2.7 ± 0.4; anti-Aβ antibodies (Aβ; MOG immunization): not detected; Anti-Aβ Antibody (Aβ; level of OD at titer of 1:500 IgG, subcutaneous, μMT B-cell deficient J20 APP+ mice): 0 OD; reduction of total brain Aβ (ELISA) compared to Aβ 1-40 immunized mice (Aβ40 and Aβ42 [1]; [6]): 86%; Total brain Aβ (Aβ40 and Aβ42 [1]; [7]): 11.4 ± 2.7 ^b ng/ml; reduction in amyloid compared to control by ELISA for total brain amyloid (Aβ40 and Aβ42 [1]; [8]): 90%; reduction of staining for Aβ fibril in the hippocampus (thioflavin S) compared to mice immunized with Aβ 1-40 (Aβ fibrils; [6]): 73%; % Area of thioflavin positive Aβ plaques (hippocampus) (Aβ fibrils; [7]): 0.27 ± 0.04 ^b %; reduction in amyloid compared to control by ThS staining (Aβ fibrils; [8]): 90%; CD3, number of cells per hippocampal region [2, 9]: 195 ± 12 ^iv cells per hippocampal region; CD11b, number of cells per hippocampal region [2, 9]: 462 ± 23 ^iv cells per hippocampal region; IFN-γ, number of cells per hippocampal region [2, 9]: 119 ± 18 ^iv cells per hippocampal region; IL-10, number of cells per hippocampal region [2, 9]: 25 ± 5 ^i cells per hippocampal region; M-CSFR, number of cells per hippocampal region [2, 9]: 77 ± 6 ^i cells per hippocampal region; TGF-β, number of cells per hippocampal region [2, 9]: 22 ± 8 ^ii cells per hippocampal region
2 | human β-amyloid peptide (Aβ amino acids 1-40) | 0 | 0.75 | – | 60.8 ± 16 ^a ng/ml | – | 0.83 ± 0.3 ^a % | 10 ± 2 cells per hippocampal region | 106 ± 27 cells per hippocampal region | 9 ± 2 cells per hippocampal region | 44 ± 5 cells per hippocampal region | 34 ± 11 cells per hippocampal region | 41 ± 5 cells per hippocampal region | 106±27 | no EAE was observed | –
3 | bovine serum albumin [BSA/CFA] | – | – | – | – | – | – | – | – | – | – | – | – | 76±17 | no EAE was observed | –
4 | glatiramer acetate [GA] | 0 | 0 | 70 | 39.1 ± 12.8 ^c ng/ml | 92 | 0.26 ± 0.1 ^d % | 61 ± 12 ^i cells per hippocampal region | 227 ± 61 ^i cells per hippocampal region | 85 ± 11 ^iv cells per hippocampal region | 59 ± 7 cells per hippocampal region | 57 ± 8 cells per hippocampal region | 31 ± 7 cells per hippocampal region | – | no clinical EAE | EAE score (J20 APP transgenic mice; [10]): 0; Anti-Aβ Antibody (Aβ; level of OD 450 at titer of 1:50 IgG, nasal immunization, J20 APP transgenic mice): 0 OD 450; effect on Aβ fibrils / fibrillar Aβ staining (Aβ fibrils; mouse, in vivo): did not affect Aβ fibrils; % Area of thioflavin S positive Aβ plaques (hippocampus) (Aβ fibrils; [10]): 2.06 ± 0.8%; CD3, number of cells per hippocampal region ([2]; NASAL): 35 ± 19 cells per hippocampal region; CD11b, number of cells per hippocampal region ([2]; NASAL): 136 ± 12 cells per hippocampal region; IFN-γ, number of cells per hippocampal region ([2]; NASAL): 53 ± 3 ^i cells per hippocampal region; IL-10, number of cells per hippocampal region ([2]; NASAL): 75 ± 7 cells per hippocampal region; M-CSFR, number of cells per hippocampal region ([2]; NASAL): 30 ± 9 cells per hippocampal region; TGF-β, number of cells per hippocampal region ([2]; NASAL): 77 ± 10 cells per hippocampal region; microglial activation in APP non-transgenic mice (APP non-transgenic mice): No microglial activation; effect on total Aβ levels in the brain (Aβ40 and Aβ42 [3]; nasal administration): slight reduction; Total brain Aβ (Aβ40 and Aβ42 [3]; [10]): 97.6 ± 15.5 ng/mL
5 | INF-gamma: Th1-type cytokine INF-gamma | – | – | – | – | – | – | – | – | – | – | – | – | – | – | augmentation of microglial phagocytosis (microglial phagocytosis): 75 % above untreated

From US20060229233A1, “Compositions and methods for treating neurological disorders” (ID Biomedical Corporation, priority 2004, published 2006)
